These results are taken from patent publication US9321804B2, “Synthesis and use of anti-tumor drug LQC-Y” (Beijing University of Chinese Medicine, priority 2011, dated 2016).

Where a name gives a salt, the structure may show the parent alone.

Series [1] has as its system S180 sarcoma of mice. The series is described as follows: Tumor inhibiting effect of LQC-Y3 on tumor bearing S180 mice. The procedure: The S180 mice that had been inoculated for 7 days were killed by breaking the neck thereof and ascites was taken from the mice respectively in an aseptic environment and the ascites was washed using RPMI1640 culture medium for 2 times and then made into a 2×10^7/ml cell suspension using aseptic physiological saline. Then the obtained S180 cell suspension was inoculated hypodermically at the right axillary of mice, 0.1 ml for each mouse and 50 mice total, to establish the solid tumor model.
(§1) 60 mice were divided into 2 categories, including 6 groups, according to the random number table method, i.e. normal control group of the first category, and S180 solid tumor groups of the second category which included positive (cyclophosphamide) control group, negative control group, small dosage group, middle dosage group and large dosage group, 10 mice for each group. The experiment was repeated for 3 times.
LQC-Y3 was prepared using 0.5% CMC-Na. The dosage of the small dosage group was 75 mg/Kg, the dosage of the middle dosage group was 150 mg/Kg, and the dosage of the large dosage group was 300 mg/kg. Equal volume of 0.5% CMC-Na was injected into the mice of the negative control group and cyclophosphamide injection 0.02 g/(Kg.d) was injected into the mice of the positive control group. These medicines were administrated 0.1 ml per mouse by intraperitoneal injection every the other day continuously for 15 days. During this period, the common behavior, hair, excrement and so on were observed daily. The mice that had been inoculated with S180 by hypodermic inoculation were killed by breaking the neck thereof after 24 h after the last administration and the tumor, liver and spleen were then taken.
The weight of the solid tumor group mice were measured after all the administration was finished and then the mice were killed. The spleens and the livers thereof were weighed by an electronic balance. The spleen index was calculated as the spleen weight of a mouse (mg)/the body weight of a mouse (g) and the liver index was calculated as the liver weight of a mouse […]/the body weight of a mouse (g).
The solid tumor negative control group mice were weighed on the next day after the administration was finished (the eyeballs of the mice were removed to bleed and the serum was collected for subsequent experimental use). Then the mice were killed by breaking the neck thereof. The tumor tissues were taken out and weighed by an electronic balance to calculate the tumor inhibiting ratio.
(§2) All the data were statistically analyzed using SPSS11.0 software pack. The comparison of the enumeration data was carried out with X^2 test. P<0.05 had statistical significance.

In series [2] the test system is S180 sarcoma of mice. The series is described as follows: Tumor inhibiting effect of LQC-Y2 in tumor bearing S180 mice. The procedure:
The S180 mice that had been inoculated for 7 days were killed by breaking the neck thereof and ascites was taken from the mice respectively in an aseptic environment and the ascites was washed using RPMI1640 culture medium for 2 times and then made into a […] /ml cell suspension using aseptic physiological saline. Then the obtained S180 cell suspension was inoculated hypodermically at the right axillary of mice, 0.1 ml for each mouse and 50 mice total, to establish the solid tumor model.
as §1
LQC-Y2 was made into an emulsion using corn oil. The dosage of the small dosage group was 75 mg/Kg, the dosage of the middle dosage group was 150 mg/Kg, and the dosage of the large dosage group was 300 mg/kg. Equal volume of corn oil was injected into the mice of the negative control group, cyclophosphamide injection 0.02 g/(Kg.d) was injected into the mice of the positive control group. These medicines were administrated 0.1 ml per mouse by intraperitoneal injection every the other day continuously for 15 days. During this period, the common behavior, hair and excrement and so on were observed daily. The mice that had been inoculated with S180 by hypodermic inoculation were killed by breaking the necks thereof after 24 h after the last administration and the tumor, liver and spleen were then taken.
The weight of the solid tumor group mice were measured after all the administration was over and then the mice were killed. The spleens and the livers thereof were weighed by an electronic balance. The spleen index was calculated as the spleen weight of a mouse (mg)/the body weight of a mouse(g) and the liver index was calculated as the liver weight of a mouse[…]/the body weight of a mouse(g).
The solid tumor negative control group mice were weighed on the next day after the administration was finished (the eyeballs of the mice were removed to bleed and the serum was collected for subsequent experimental use). Then the mice were killed by breaking the neck thereof. The tumor tissues were taken out and weighed by an electronic balance to calculate the tumor-inhibiting ratio.
as §2

Series [3] relates to Human hepatoma carcinoma cells Bel7402. The series is described as follows: Proliferation of human hepatoma carcinoma cells Bel7402 by MTT. The format is cell-based. The conditions noted are these: 40 μg/ml.
For series [4] the test system is unchanged. The series is described as above. The conditions noted are these: for 24 h inhibition ratio (%): Bel7402 cells; for inhibiting effect on the proliferation of Bel7402 cells: cultured in vitro, 10-40 μg/ml. The format is cell-based. The procedure: Human hepatoma carcinoma cells Bel7402 were recovered and subcultured using a culture flask. The preparation of the experiment was started when the cell growth entered into the exponential growth phase. The cells were then digested using pancreatic enzyme which had been filtrated at an increased pressure to prepare the cell suspension. After that the suspension was dyed for 3 min with 0.4% trypan blue. Then a blood cell counting plate was used to count the living cells which were not dyed and the dead cells which were dyed to blue. The number of the living cells identified by trypan blue was more than 98%.
Three kinds of cells which were in the exponential growth phase were inoculated at the density of 1×10^4/ml, to a 96-well plate, 200 μl for each well. Then the plate was put in a 37° C. 5% CO2 incubation box to be cultured for 24 h. The cultivation liquid was sucked away and 200 μl LQC-Y solutions of different concentrations were added thereinto (prepared with DMEM cultivation liquid containing 4% calf serum and the final concentration of which respectively were 10 μg, 20 μg, 40 μg), 4 parallel wells for each concentration. Supernatant cultivation liquid 100 μl was sucked away carefully from each well after being cultured for 24 h and 48 h, and MTS 20 μl was added into each well and homogeneously mixed. The resultant liquid was cultured in a 37° C. 5% CO2 incubation box for a further 1 h. An enzyme-labeling quantitative instrument was used to measure the absorbance at 492 nm. The experiment was repeated for 3 times and then an inhibition ratio was calculated.
The inhibition ratio of cell proliferation (%)=[(average OD value of control group-average OD value of the administration group)/average OD value of control group]×100%

[5] abbreviates: S180 Balb/C mice, cyclophosphamide 0.02 g/(Kg.d) i.p., 15 days.
Setting [6] is: S180 mice, cyclophosphamide 0.02 g/(Kg.d) i.p., 15 days.

With `O=P1(N(CCCl)CCCl)NCCCO1` (stereo not shown) [Cyclophosphamide, reference compound], the “liver index compared with the negative control group” value in the series with S180 sarcoma of mice [1] (LQC-Y3 dosage groups, cyclophosphamide 0.02 g/(Kg.d)) is given as “smaller than those of the negative control group”. Besides, in the series on S180 sarcoma of mice [1] (setting [5]), the “Tumor inhibiting ratio (%)” value worked out at 73.40%, the “Tumor weight (g)” value was 0.25 ± 0.16^(4) g and the “Weight growth (g)” value is listed as 6.90 ± 2.04^(1)(3) g. Moreover, the “Liver index (100 g/g)” value with S180 sarcoma of mice [1] (setting [6]) is recorded as 5.19 ± 0.33 100 g/g. For the same compound, the “liver index compared with the negative control group” value in the series with S180 sarcoma of mice [2] (LQC-Y2 dosage groups, cyclophosphamide 0.02 g/(Kg.d)) is reported as “smaller than those of the negative control group”. Besides, in the series on S180 sarcoma of mice [2] (setting [5]), the “Tumor inhibiting ratio (%)” value amounted to 88.55%, the “Tumor weight (g)” value was 0.15 ± 0.13^(4) g and the “Weight growth (g)” value is reported as 8.98 ± 3.80^(1)(3) g. For the same compound, in the series with S180 sarcoma of mice [2] (setting [6]), the “Spleen index (100 g/g)” value was 5.29 ± 0.47^(1)(4) 100 g/g.
For `Cc1nc(C)c(COC(=O)CCC(C)C2CCC3C4C(O)CC5CC(O)CCC5(C)C4CC(O)C23C)nc1C` (stereo not shown) [LQC-Y1, (3,5,6-trimethyl pyrazine-2-yl)methyl-4-(3,7,12-trihydroxy-10,13-dimethylhexadecahydro-1H-cyclopenta[a]phenanthren-17-yl)pentanoate], the “24 h inhibition ratio (%)” value is 86.44% in series [3], 67.39% in series [4] (10 μg/ml) and 76.66% in series [4] (20 μg/ml). The “inhibiting effect on the proliferation of Bel7402 cells” value (shortened to “inhibiting effect on the proliferation”) in series [4] is reported as “evident inhibiting effect”.
As to `Cc1nc(C)c(COC(=O)C2(C)CCC3(C)CCC4(C)C(=CC(=O)C5C6(C)CCC(O)C(C)(C)C6CCC54C)C3C2)nc1C` (stereo not shown) [LQC-Y4, (3,5,6-trimethyl pyrazine-2-yl)methyl-10-hydroxy-2,4a,6a,6b,9,9,12a-heptamethyl-13-oxo-1,2,3,4,4a,5,6,6a,6b,7,8,8a,9,10,11,12,12a,12b,13,14b-eicosahydropicene-2-carboxylate], the “24 h inhibition ratio (%)” value in series [3] stood at 94.42%; in series [4] (10 μg/ml) it was 39.31%; in series [4] (20 μg/ml) it was 44.58%. For the same compound, the “inhibiting effect on the proliferation” value in series [4] is “evident inhibiting effect”.
For `Cc1nc(C)c(COC(=O)c2cc(O)c3c(c2)C(=O)c2cccc(O)c2C3=O)nc1C` [LQC-Y6, (3,5,6-trimethyl pyrazine-2-yl)methyl-4,5-dihydroxy-9,10-dioxo-9,10-dihydroanthracene-2-carboxylate], the “24 h inhibition ratio (%)” value is recorded as 81.21% in series [3], 26.75% in series [4] (10 μg/ml) and 67.23% in series [4] (20 μg/ml). The “inhibiting effect on the proliferation” value in series [4] is listed as “inhibiting effect”.
For the compound `Cc1nc(C)c(COC(=O)C2=CC(O)C(O)C(O)C2)nc1C` (stereo not shown) [LQC-Y10, (3,5,6-trimethyl pyrazine-2-yl)methyl 3,4,5-trihydroxycyclohexyl-1-ene formate], the “24 h inhibition ratio (%)” value in series [3] is given as 5.69%; in series [4] (20 μg/ml) it was 7.82%. In addition, the “inhibiting effect on the proliferation” value in series [4] was “inhibiting effect”.
